Data set [1] can be described thus: Example IX: stability of 1% Dobutamine sulphate solution at 50° C. The format is physicochemical. How it is done: A Dobutamine sulphate solution is prepared by dissolving 1 g Dobutamine in 50 ml of water and 19 ml of a 0.10% sodium ascorbate solution is added, with continuous bubbling of nitrogen. Then 25 mg hydrated cysteine chlorhydrate and 70 mg hydrated sodium citrate are added, then 700 mg sodium chloride to ensure isotonicity. The solution is made up to 100 ml by the addition of distilled water for injectable preparations.
It is filled into 100 ml bottles under nitrogen until the residual oxygen content is below 0.8 ppm. The bottles are then stoppered under vacuum (approx. 10,000 Pa) and sterilized at 121° C. for 20 minutes.
After removal from the autoclave, the bottles are kept in darkness in a thermostatic cupboard at 50° C.
An evaluation is made of absorption at 308 nm as an indication of oxidation into secondary products, the residual oxygen content and the residual cysteine content immediately after sterilization, then after being kept for 14 days at 50° C.
Coloration remains slight and reduces as the pH increases.

Data set [2] in a line: Example VI: buffered paracetamol + cysteine solutions without deoxygenation. The format is physicochemical. To be noted: 10 mg/ml paracetamol + 0.25 mg/ml cysteine, no inert gas, darkness 25° C. 3 days. How it is done: A quantity of sodium citrate (in the form of dihydrated disodic citrate) was added to 10 mg/ml aqueous paracetamol solutions, made isotonic by NaCl and stabilized by the addition of cysteine hydrochlorhide (0.25 mg/ml) suitable for adjusting the pH to 5.5. […] Comparative solutions were prepared without sodium citrate or replacing the citrate ions by equimolar quantities to those of the citrate, of either sodium acetate, or sodium hydrogenophosphate; in all cases adjusting the pH to a value of 5.5 by the addition of sodium hydroxide or hydrochloric acid.
The solutions were not subjected to bubbling with inert gas (nitrogen) and were kept in darkness at 25° C. for 3 days.

A short description of data set [3]: Example V: residual cysteine in buffered aqueous cysteine solutions. To be noted: 0.25 mg/ml cysteine, approx. 7 ppm O2, darkness 25° C. 3 days. Format: physicochemical. Here is the method: A 0.25 mg/ml aqueous cysteine solution was adjusted to pH 5.5, made isotonic by sodium chloride and buffered using as a buffering agent: dehydrated sodium citrate (0.70 mg/ml), sodium acetate, sodium hydrogenophosphate, in quantities equimolar to that of the citrate. […] They were kept in darkness at 25° C. for 3 days.

The procedure of data set [4]: A 10 mg/ml aqueous paracetamol solution adjusted to pH 5.5 by sodium hydroxide and buffered at this value by sodium acetate was made isotonic by a sufficient quantity of sodium chloride, then an antioxidant is added to it, in this case 0.20 mg/ml cysteine chlorhydrate. This solution was subjected to bubbling with nitrogen then placed under vacuum (low pressure approx. 550 mm of Hg) before stoppering the bottles. […] After sterilization, the bottles containing this solution were kept for 24 months at 25° C.

For data set [5] the following is noted: ambient temperature under light, and 70° C. in darkness; nitrogen bubbling, filling under nitrogen, antioxidant added; cited from earlier work.
The conditions of data set [6]: for coloration: sterilized 121° C. 15 min. How it is done: A 10 mg/ml aqueous paracetamol solution is prepared. Adjustment to pH 5.5 is carried out by the addition of HCl, and buffering by the addition of sodium hydrogenophosphate.
Deoxygenation is then carried out by bubbling with nitrogen, until a residual oxygen content of approximately 0.2 ppm is obtained. After the bottles are filled with the solution during prolonged bubbling with nitrogen, they are sterilized at 121° C. for 15 minutes.
In another test, the paracetamol solution, after being subjected to bubbling with nitrogen, has been packaged under nitrogen.

Data set [7] is described as follows: Example III: stability of paracetamol solution with or without citrate ions. Format: physicochemical. To be noted: O2 approx. 0.4 ppm, sterilized. Here is the method: Thus a 10 mg/ml paracetamol solution adjusted to pH 5.5 by hydrochloric acid was subjected to bubbling with nitrogen until an oxygen content of approximately 0.4 ppm was obtained. The bottles were sterilized at 121° C. for 15 minutes and kept at ambient temperature. […] After bubbling with nitrogen, the residual oxygen content is of the order of 0.4 ppm. Afterwards the solution is packaged into bottles under vacuum and sterilized at 121° C. for 15 minutes. The bottles are kept for 67 days at ambient temperature.

Data set [8] can be described thus: Paracetamol solution with trisodic citrate kept at 40° C. (general statement). The format is physicochemical. Here is the method: In particular, in the case of paracetamol, after the addition of trisodic citrate at a concentration of 70 mg/100 ml of solution, the residual cysteine concentration is approximately double than that of preparations without citrate, no coloration appeared, even after 7 weeks at 40° C., and there was no variation in the concentration of paracetamol.

Setting [9] is: pH 5.5, sodium hydrogenophosphate.
[10] abbreviates: trisodic citrate 70 mg/100 ml, after 7 weeks at 40° C.

This is an account of results in patent US6992218B2, “Method for obtaining aqueous formulations of oxidation-sensitive active principles” (Pharmatop SCR, priority 2000, dated 2006).

SMILES strings stand for the structures. Where two headings read alike, the source gives them in different places.

In the case of `CC(CCc1ccc(O)cc1)NCCc1ccc(O)c(O)c1` (stereo not drawn) [Dobutamine], the “degradation of the Dobutamine in heat” value in data set [1] (1% solution with ascorbate, cysteine, citrate, vacuum, sterilized 121° C. 20 min, kept at 50° C.) is “no degradation”. The “secondary peaks by liquid chromatography, absorption at 308 nm” value in data set [1] (degree decreases as the pH increases) is “appearance of secondary peaks”. For the same molecule, the coloration result in data set [1] (reduces as the pH increases) is “slight”.
Take `N[C@@H](CS)C(=O)O` [cysteine]: the residual cysteine in data set [2] (pH 5.5, citrate approx. 0.7 mg/ml) came out at 22%; in data set [2] (pH 5.5, non-buffered) it was 42%; in data set [2] (pH 5.5, sodium acetate), 17%; in data set [2] (setting [9]) it was 21%. Also, the residual cysteine content result in data set [3] (pH 5.5, citrate 0.70 mg/ml) is reported as “lowest”; in data set [3] (pH 5.5, non-buffered) it was 15%; in data set [3] (pH 5.5, sodium acetate), 18%; in data set [3] (setting [9]), 21%.
For the molecule `CC(=O)Nc1ccc(O)cc1` [paracetamol], the paracetamol content is 100 % of the original value in data set [4] (0.20 mg/ml cysteine chlorhydrate, O2 approx. 1.5 ppm, sterilized, 24 months at 25° C.) and “no change” in data set [6] (10 mg/ml, pH 5.5, no antioxidant, O2 approx. 0.2 ppm, sterilized, 6 months at 25° C.). Also, the coloration result in data set [4] (10 mg/ml, pH 5.5, acetate buffer, 0.20 mg/ml cysteine chlorhydrate, vacuum, O2 approx. 1.5 ppm, sterilized, 24 months at 25° C.) is “colourless”; in data set [6] (10 mg/ml, pH 5.5, no antioxidant, O2 approx. 0.2 ppm, 6 months at 25° C.), “colourless”; in data set [6] (packaged under nitrogen, vacuum < 10,000 Pa, O2 0.16 ppm, 8 days at 30° C.), “colourless”; in data set [7] (10 mg/ml with citric acid/sodium citrate, under vacuum, 67 days at ambient temperature), “perfectly colourless”; in data set [7] (10 mg/ml, pH 5.5 by HCl, no citrate, 9 days at ambient temperature) it was “yellow-pink”; in data set [8] (setting [10]), “no coloration”. In data set [4] (24 months, 10 mg/ml, pH 5.5), the “degradation products of the paracetamol measured by HPLC” value is “less than 0.02 % of the paracetamol content”. The “time for which aqueous solutions are stable” value in data set [5] is 48 h. The “content of degradation products of paracetamol determined by HPLC” value in data set [6] (6 months, 10 mg/ml, pH 5.5) was “lower than 0.015 % of the paracetamol”. In data set [8] (trisodic citrate 70 mg/100 ml of solution), the “residual cysteine concentration versus preparations without citrate” value is given as “approximately double”. In data set [8] (setting [10]), the “variation in the concentration of paracetamol” value is listed as “no variation”.
